Reference: patent publication US10842845B2, “Oxytocin improves treatment of obstructive sleep apnea” (THE GEORGE WASHINGTON UNIVERSITY, priority 2014, dated 2020)

Test system: DREADDs-expressing PVN OXT neurons
Assay: Whole-cell patch clamp of DREADDs-expressing PVN OXT neurons, CNO application
Type: cell-based, rat
Description: CVNs in NA and DMNX were identified by the presence of fluorescent tracer rhodamine and imaged using differential interference contrast optics and infrared illumination. Whole cell voltage clamp recordings from CVNs were done using Axopatch 200B and pClamp 8 software (Axon Instruments, Union city, USA), at a holding voltage of −80 mV at room temperature. The patch pipettes (2.5-5 MΩ) were filled with a solution consisting (in mM) of KCl (150), MgCl2 (4), EGTA (10), Na-ATP (2) and HEPES (10) or K-gluconic acid (150), HEPES (10), EGTA (10), MgCl2 (1) and CaCl2 (1) at a pH of 7.3 for recording inhibitory or excitatory events respectively. For PVN studies, forebrain slices were used for electrophysiology recordings.
A rat minimal oxytocin (OXT) promoter element from ˜530 bp to +33 relative to the origin of transcription of the OXT gene (UCSC genome browser on rat November 2004 assembly; chr3:118,193,690 to 118,194,252) was synthesized de novo and flanked by multiple cloning sites (Genscript, Piscataway, N.J.) (McCann et al., 2002; Petersson et al., 1996). […] Expression of these Cre-dependent vectors will only be initiated in neurons selectively expressing Cre as they contain silencing double-foxed inverse open reading frames (Sawchenko and Swanson, 1982). […]

## C[N+]1([O-])CCN(C2=Nc3cc(Cl)ccc3Nc3ccccc32)CC1 [CNO, clozapine-n-oxide]
Before CNO vs post CNO, 7 neurons
  firing of PVN OXT neurons expressing DREADDs with CNO application (in words): significantly increases
Within 5 min of CNO application, from 0.19±0.05 Hz before CNO, n=7
  action potential firing frequency of DREADDs-expressing PVN neurons after CNO application: 0.75±0.14 Hz
